US20160281050A1, “METHODS FOR TREATING A CULTURE OF HAEMATOCOCCUS PLUVIALIS FOR CONTAMINATION USING SALT AND HYDROGEN PEROXIDE” (HELIAE DEVELOPMENT LLC, priority 2015, published 2016)

Tested on: Haematococcus pluvialis (Strain 2)
Assay: % cell lysis, culture dry weight and % carotenoid by UV method in 230 L reactors, salt treatment (Example 12)
Format: cell-based
Procedure: This test was done side by side in flasks (0.1 L) and in reactors located in a greenhouse operating in conditions: reactor volume of 230 L; Daily PAR of 20 mol m^−2 d^−1; pH (not measured); and paddlewheel speed of 21 RPM. […] The flask cultures were mixed by shaking at 140 rpm and received 300-400 μmol/m^2 s of photosynthetically active radiation (PAR) in 12 hour light cycles and constant supply of 2.5% CO2. The motility of the culture was monitored by visual observation under a microscope. […] Nine 230 L reactors were also seeded with culture from bioreactor #2410 on the same day as the flasks and brought to 2 ppt concentration of salt. Once motility of the cells was reduced to <10% (day 3 of culture for flasks and day 2 for 230 L reactors) the level of salt was elevated to a point between 4-18 ppt and compared to the culture in two reactors remaining at 2 ppt salt. Flasks and 230 L reactors were monitored for percentage of cell lysis via visual observation under a microscope, culture dry weight (biomass accumulation in g/L), and percentage of chytrid infection via visual observation under a microscope. Carotenoid production, a proxy for determining astaxanthin, was quantified every other day of culture in the 230 L reactors using the UV method.

In the case of `[Cl-].[Na+]` [NaCl, sodium chloride], the “Culture Dry Weight in 230L reactors” value (NaCl 2 ppt (1st 2 ppt column), time 12 d) is reported as 0.187 g/L, the “Culture Dry Weight in 230L reactors” value (NaCl 2 ppt, time 0 d) is reported as 0.043 g/L and the “Culture Dry Weight in 230L reactors” value (NaCl 2 ppt, time 1 d) is reported as 0.048 g/L. For the same molecule, the “Culture Dry Weight in 230L reactors” value (NaCl 2 ppt, time 2 d) was 0.072 g/L, the “Culture Dry Weight in 230L reactors” value (NaCl 2 ppt, time 4 d) was 0.113 g/L and the “Culture Dry Weight in 230L reactors” value (NaCl 2 ppt, time 5 d) was 0.125 g/L. The “Culture Dry Weight in 230L reactors” value (NaCl 2 ppt, time 6 d) was 0.130 g/L, the “Culture Dry Weight in 230L reactors” value (NaCl 2 ppt, time 7 d) was 0.150 g/L and the “Culture Dry Weight in 230L reactors” value (NaCl 2 ppt, time 8 d) was 0.170 g/L. For the same molecule, the “Culture Dry Weight in 230L reactors” value (NaCl 2 ppt, time 9 d) was 0.218 g/L, the “Culture Dry Weight in 230L reactors” value (NaCl 2 ppt, time 10 d) was 0.150 g/L and the “Culture Dry Weight in 230L reactors” value (NaCl 4 ppt, time 0 d) was 0.037 g/L. The “Culture Dry Weight in 230L reactors” value (NaCl 4 ppt, time 1 d) was 0.063 g/L, the “Culture Dry Weight in 230L reactors” value (NaCl 4 ppt, time 2 d) was 0.080 g/L and the “Culture Dry Weight in 230L reactors” value (NaCl 4 ppt, time 4 d) was 0.115 g/L. For the same molecule, the “Culture Dry Weight in 230L reactors” value (NaCl 4 ppt, time 5 d) was 0.120 g/L, the “Culture Dry Weight in 230L reactors” value (NaCl 4 ppt, time 6 d) was 0.125 g/L and the “Culture Dry Weight in 230L reactors” value (NaCl 4 ppt, time 7 d) was 0.148 g/L. The “Culture Dry Weight in 230L reactors” value (NaCl 4 ppt, time 8 d) was 0.153 g/L, the “Culture Dry Weight in 230L reactors” value (NaCl 4 ppt, time 9 d) was 0.198 g/L and the “Culture Dry Weight in 230L reactors” value (NaCl 4 ppt, time 10 d) was 0.143 g/L. The “Culture Dry Weight in 230L reactors” value (NaCl 4 ppt, time 11 d) was 0.148 g/L, the “Culture Dry Weight in 230L reactors” value (NaCl 4 ppt, time 12 d) was 0.150 g/L and the “Culture Dry Weight in 230L reactors” value (NaCl 5 ppt, time 0 d) was 0.040 g/L. The “Culture Dry Weight in 230L reactors” value (NaCl 5 ppt, time 1 d) was 0.070 g/L, the “Culture Dry Weight in 230L reactors” value (NaCl 5 ppt, time 4 d) was 0.162 g/L and the “Culture Dry Weight in 230L reactors” value (NaCl 5 ppt, time 5 d) was 0.185 g/L. For the same molecule, the “Culture Dry Weight in 230L reactors” value (NaCl 5 ppt, time 6 d) was 0.213 g/L, the “Culture Dry Weight in 230L reactors” value (NaCl 5 ppt, time 7 d) was 0.223 g/L and the “Culture Dry Weight in 230L reactors” value (NaCl 5 ppt, time 8 d) was 0.270 g/L. The “Culture Dry Weight in 230L reactors” value (NaCl 5 ppt, time 9 d) was 0.293 g/L, the “Culture Dry Weight in 230L reactors” value (NaCl 5 ppt, time 10 d) was 0.265 g/L and the “Culture Dry Weight in 230L reactors” value (NaCl 5 ppt, time 11 d) was 0.250 g/L. The “Culture Dry Weight in 230L reactors” value (NaCl 5 ppt, time 12 d) was 0.280 g/L, the “Culture Dry Weight in 230L reactors” value (NaCl 6 ppt, time 0 d) was 0.040 g/L and the “Culture Dry Weight in 230L reactors” value (NaCl 6 ppt, time 1 d) was 0.058 g/L. For the same molecule, the “Culture Dry Weight in 230L reactors” value (NaCl 6 ppt, time 4 d) was 0.140 g/L, the “Culture Dry Weight in 230L reactors” value (NaCl 6 ppt, time 5 d) was 0.178 g/L and the “Culture Dry Weight in 230L reactors” value (NaCl 6 ppt, time 6 d) was 0.198 g/L. The “Culture Dry Weight in 230L reactors” value (NaCl 6 ppt, time 7 d) was 0.218 g/L, the “Culture Dry Weight in 230L reactors” value (NaCl 6 ppt, time 8 d) was 0.260 g/L and the “Culture Dry Weight in 230L reactors” value (NaCl 6 ppt, time 9 d) was 0.260 g/L. The “Culture Dry Weight in 230L reactors” value (NaCl 6 ppt, time 10 d) was 0.250 g/L, the “Culture Dry Weight in 230L reactors” value (NaCl 6 ppt, time 11 d) was 0.282 g/L and the “Culture Dry Weight in 230L reactors” value (NaCl 6 ppt, time 12 d) was 0.323 g/L. The “Culture Dry Weight in 230L reactors” value (NaCl 7 ppt, time 0 d) was 0.035 g/L, the “Culture Dry Weight in 230L reactors” value (NaCl 7 ppt, time 1 d) was 0.048 g/L and the “Culture Dry Weight in 230L reactors” value (NaCl 7 ppt, time 4 d) was 0.145 g/L. The “Culture Dry Weight in 230L reactors” value (NaCl 7 ppt, time 5 d) was 0.150 g/L, the “Culture Dry Weight in 230L reactors” value (NaCl 7 ppt, time 6 d) was 0.170 g/L and the “Culture Dry Weight in 230L reactors” value (NaCl 7 ppt, time 7 d) was 0.198 g/L. For the same molecule, the “Culture Dry Weight in 230L reactors” value (NaCl 7 ppt, time 8 d) was 0.260 g/L, the “Culture Dry Weight in 230L reactors” value (NaCl 7 ppt, time 9 d) was 0.148 g/L and the “Culture Dry Weight in 230L reactors” value (NaCl 7 ppt, time 10 d) was 0.205 g/L. The “Culture Dry Weight in 230L reactors” value (NaCl 7 ppt, time 11 d) was 0.218 g/L, the “Culture Dry Weight in 230L reactors” value (NaCl 7 ppt, time 12 d) was 0.245 g/L and the “Culture Dry Weight in 230L reactors” value (NaCl 8 ppt, time 0 d) was 0.018 g/L. The “Culture Dry Weight in 230L reactors” value (NaCl 8 ppt, time 1 d) was 0.057 g/L, the “Culture Dry Weight in 230L reactors” value (NaCl 8 ppt, time 4 d) was 0.145 g/L and the “Culture Dry Weight in 230L reactors” value (NaCl 8 ppt, time 5 d) was 0.168 g/L. The “Culture Dry Weight in 230L reactors” value (NaCl 8 ppt, time 6 d) was 0.193 g/L, the “Culture Dry Weight in 230L reactors” value (NaCl 8 ppt, time 7 d) was 0.205 g/L and the “Culture Dry Weight in 230L reactors” value (NaCl 8 ppt, time 8 d) was 0.237 g/L. For the same molecule, the “Culture Dry Weight in 230L reactors” value (NaCl 8 ppt, time 9 d) was 0.218 g/L, the “Culture Dry Weight in 230L reactors” value (NaCl 8 ppt, time 10 d) was 0.257 g/L and the “Culture Dry Weight in 230L reactors” value (NaCl 8 ppt, time 11 d) was 0.220 g/L. The “Culture Dry Weight in 230L reactors” value (NaCl 8 ppt, time 12 d) was 0.263 g/L, the “Culture Dry Weight in 230L reactors” value (NaCl 10 ppt, time 0 d) was 0.045 g/L and the “Culture Dry Weight in 230L reactors” value (NaCl 10 ppt, time 1 d) was 0.060 g/L. The “Culture Dry Weight in 230L reactors” value (NaCl 10 ppt, time 4 d) was 0.120 g/L, the “Culture Dry Weight in 230L reactors” value (NaCl 10 ppt, time 5 d) was 0.130 g/L and the “Culture Dry Weight in 230L reactors” value (NaCl 10 ppt, time 6 d) was 0.168 g/L. For the same molecule, the “Culture Dry Weight in 230L reactors” value (NaCl 10 ppt, time 7 d) was 0.145 g/L, the “Culture Dry Weight in 230L reactors” value (NaCl 10 ppt, time 8 d) was 0.145 g/L and the “Culture Dry Weight in 230L reactors” value (NaCl 10 ppt, time 9 d) was 0.160 g/L. For the same molecule, the “Culture Dry Weight in 230L reactors” value (NaCl 10 ppt, time 10 d) was 0.173 g/L, the “Culture Dry Weight in 230L reactors” value (NaCl 10 ppt, time 11 d) was 0.145 g/L and the “Culture Dry Weight in 230L reactors” value (NaCl 10 ppt, time 12 d) was 0.168 g/L. The “Culture Dry Weight in 230L reactors” value (NaCl 18 ppt, time 0 d) was 0.035 g/L, the “Culture Dry Weight in 230L reactors” value (NaCl 18 ppt, time 1 d) was 0.052 g/L and the “Culture Dry Weight in 230L reactors” value (NaCl 18 ppt, time 4 d) was 0.135 g/L. The “Culture Dry Weight in 230L reactors” value (NaCl 18 ppt, time 5 d) was 0.173 g/L, the “Culture Dry Weight in 230L reactors” value (NaCl 18 ppt, time 6 d) was 0.180 g/L and the “Culture Dry Weight in 230L reactors” value (NaCl 18 ppt, time 7 d) was 0.165 g/L. For the same molecule, the “Culture Dry Weight in 230L reactors” value (NaCl 18 ppt, time 8 d) was 0.165 g/L, the “Culture Dry Weight in 230L reactors” value (NaCl 18 ppt, time 9 d) was 0.175 g/L and the “Culture Dry Weight in 230L reactors” value (NaCl 18 ppt, time 10 d) was 0.183 g/L. The “Culture Dry Weight in 230L reactors” value (NaCl 18 ppt, time 11 d) was 0.200 g/L and the “Culture Dry Weight in 230L reactors” value (NaCl 18 ppt, time 12 d) was 0.175 g/L.
